Data as given in PubChem BioAssay (NCI).
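Protocol summary: plate cells (96-well), add compound at 5 concentrations, incubate 48 h, interpolate endpoints linearly. TGI marks complete inhibition of growth.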

Legend:
Assay in all cases: growth of human tumour cells (NCI), 48 h
[1] = test system: 786-0 renal
[2] = test system: A549 NSCLC
[3] = test system: ACHN renal
[4] = test system: BT-549 breast
[5] = test system: CAKI-1 renal
[6] = test system: CCRF-CEM leukemia
[7] = test system: COLO 205 colon
[8] = test system: EKVX NSCLC
[9] = test system: HCC-2998 colon
[10] = test system: HCT-116 colon
[11] = test system: HCT-15 colon
[12] = test system: HOP-62 NSCLC
[13] = test system: HS 578T breast
[14] = test system: HT29 colon
[15] = test system: IGROV1 ovarian
[16] = test system: K-562 leukemia
[17] = test system: KM12 colon
[18] = test system: LOX IMVI melanoma
[19] = test system: M14 melanoma
[20] = test system: MALME-3M melanoma
[21] = test system: MDA-MB-231 breast
[22] = test system: MDA-MB-435
[23] = test system: MDA-N
[24] = test system: MOLT-4 leukemia
[25] = test system: NCI-H226 lung
[26] = test system: NCI-H23 lung
[27] = test system: NCI-H460 lung
[28] = test system: NCI-H522 lung
[29] = test system: NCI/ADR-RES ovarian
[30] = test system: OVCAR-3 ovarian
[31] = test system: OVCAR-4 ovarian
[32] = test system: OVCAR-5 ovarian
[33] = test system: OVCAR-8 ovarian
[34] = test system: PC-3 prostate
[35] = test system: RPMI-8226 leukemia
[36] = test system: RXF 393 renal
[37] = test system: SF-268 CNS
[38] = test system: SF-295 CNS
[39] = test system: SF-539 CNS
[40] = test system: SK-MEL-2 melanoma
[41] = test system: SK-MEL-28 melanoma
[42] = test system: SK-MEL-5 melanoma
[43] = test system: SK-OV-3 ovarian
[44] = test system: SN12C renal
[45] = test system: SNB-19 CNS
[46] = test system: SNB-75 CNS
[47] = test system: SR leukemia
[48] = test system: SW-620 colon
[49] = test system: TK-10 renal
[50] = test system: U251 CNS
[51] = test system: UACC-257 melanoma
[52] = test system: UACC-62 melanoma
[53] = test system: UO-31 renal
[54] = test system: A498 renal
[55] = test system: MCF7 breast
[56] = test system: T-47D breast

N=c1c2ccccc2nc2oc3ccc(Cl)cc3n12
TGI [1]: 15.9 µM
TGI [2]: 97 µM
TGI [3]: 28.4 µM
TGI [4]: > 100 µM
TGI [5]: 37.5 µM
TGI [6]: > 100 µM
TGI [7]: > 100 µM
TGI [8]: > 100 µM
TGI [9]: > 100 µM
TGI [10]: 69.3 µM
TGI [11]: > 100 µM
TGI [12]: 19.2 µM
TGI [13]: 20.3 µM
TGI [14]: > 100 µM
TGI [15]: 69.8 µM
TGI [16]: > 100 µM
TGI [17]: > 100 µM
TGI [18]: 26.8 µM
TGI [19]: 56.9 µM
TGI [20]: 40.1 µM
TGI [21]: > 100 µM
TGI [22]: > 100 µM
TGI [23]: > 100 µM
TGI [24]: > 100 µM
TGI [25]: 34.6 µM
TGI [26]: 34.2 µM
TGI [27]: > 100 µM
TGI [28]: 53.1 µM
TGI [29]: > 100 µM
TGI [30]: 31.4 µM
TGI [31]: 13.1 µM
TGI [32]: 47.1 µM
TGI [33]: 69.1 µM
TGI [34]: > 100 µM
TGI [35]: 23.5 µM
TGI [36]: 26.1 µM
TGI [37]: > 100 µM
TGI [38]: 35.6 µM
TGI [39]: 32 µM
TGI [40]: 51.3 µM
TGI [41]: > 100 µM
TGI [42]: > 100 µM
TGI [43]: 46.2 µM
TGI [44]: 61.5 µM
TGI [45]: > 100 µM
TGI [46]: 23.6 µM
TGI [47]: > 100 µM
TGI [48]: > 100 µM
TGI [49]: 34.9 µM
TGI [50]: 17.8 µM
TGI [51]: > 100 µM
TGI [52]: > 100 µM
TGI [53]: 32.9 µM

Cc1cc2nc3c(C#N)c(-c4ccccc4)cc(Nc4cccc(C(F)(F)F)c4)n3c2cc1C
TGI [1]: 18.6 µM
TGI [54]: 29.5 µM
TGI [2]: 16.8 µM
TGI [3]: 28.5 µM
TGI [4]: > 100 µM
TGI [5]: 40.2 µM
TGI [6]: > 100 µM
TGI [7]: > 100 µM
TGI [8]: 37.9 µM
TGI [9]: 14.3 µM
TGI [10]: 10.8 µM
TGI [11]: 22.3 µM
TGI [12]: 35.2 µM
TGI [16]: 1.2 µM
TGI [17]: > 100 µM
TGI [18]: > 100 µM
TGI [19]: 60.3 µM
TGI [20]: > 100 µM
TGI [55]: 22.5 µM
TGI [21]: 16.2 µM
TGI [22]: 30.6 µM
TGI [23]: 24.7 µM
TGI [25]: 26.5 µM
TGI [26]: > 100 µM
TGI [27]: 11.5 µM
TGI [28]: 30.1 µM
TGI [29]: 20.2 µM
TGI [30]: 8.41 µM
TGI [31]: 50.5 µM
TGI [32]: 47.1 µM
TGI [33]: > 100 µM
TGI [34]: 16 µM
TGI [35]: > 100 µM
TGI [36]: 22.9 µM
TGI [37]: 61.2 µM
TGI [38]: 44.6 µM
TGI [39]: 13.6 µM
TGI [40]: 12.7 µM
TGI [41]: 50.6 µM
TGI [42]: 19.8 µM
TGI [43]: 44 µM
TGI [44]: 25.2 µM
TGI [45]: 80.7 µM
TGI [46]: 72.9 µM
TGI [48]: 20.7 µM
TGI [56]: > 100 µM
TGI [49]: 33.6 µM
TGI [51]: 54.3 µM
TGI [53]: 25.8 µM
